Laboratory results from US4758580A, “Inhibiting growth of tumors with certain substituted phenoxy dimethyl alkanoic acids, esters or salts” (Yamanouchi Pharmaceutical Co., Ltd., priority 1985, dated 1988).
Values after ≈ are worked out from the molar mass of the structure shown.

What was measured:
Meth A solid tumor = experiment: Anti-tumor test against methyl cholanthrene-induced Meth A solid tumor; format: in vivo, Balb/C/SLC mice; details: 1-8 Days
Procedure: Meth A tumor cells, 1.5×10^6, on Day 7 after intraperitoneal transplantation to Balb/C/SLC mice were subcutaneously transplanted to the left abdomen of Balb/C/SLC mice (5 week age, male) of 8 mice each being grouped in one (16 mice for the control group). The active component was orally administered in a definite dose 24 hours after the transplantation according to the schedule shown in Table 3. An effect of tumor growth inhibition was compared by measuring the long diameter and short diameter of the tumor on Days 15 and 21 after the transplantation, calculating the tumor size (mm^2) and determining a tumor growth inhibition rate of the active component-administered group to the control group.

MM-46 ascites tumor = experiment: Anti-tumor test against mice mammary cancer MM-46 ascites tumor; format: in vivo, C3 H/He/CRJ mice
Procedure: MM-46 tumor cells, 1×10^6, on Day 7 after intraperitoneal transplantation to C3 H/He/CRJ mice (5 week age, male) of 10 mice each being grouped in one. The active component was intraperitoneally administered in a definite dose 24 hours after the transplantation according to the schedule shown in Table 5. An effect of tumor growth inhibition was evaluated by a percentage of the median survival time of the administered group versus that of the control group, according to the following equation.
T: median survival day of the administered group
C: median survival day of the control group

[1] = test system: liver cancer (MH-134) cells; experiment: Inhibition of spontaneous metastasis (to the lymph node) of liver cancer (MH-134) cells in mice; format: in vivo, C3 H/He/SLC mice; details: 20th day
Procedure: (a) Inhibition of spontaneous metastasis (to the lymph node) of liver cancer (MH-134) cells in mice
MH-134 tumor cells, 1×10^6, on Day 7 after intraperitoneal transplantation to C3 H/He/SLC mice were transplanted to the right leg. On the 11th day after the transplantation, the right leg portion wherein the cancer cells were transplanted were cut off. The test compounds were administered orally in a definite dose 24 hours after the transplantation. In order to confirm metastasis-inhibiting effect, on 20th day of the transplantation the mice were anatomised to observe the metastasis to the lymph node in the inguinal portion. [formula] Further, the weight of the lymph node metastasis tumor in the inguinal portion of anatomised mice was measured. [formula]

melanoma BL-6 = experiment: Inhibition of experimental metastasis (to the lung) of melanoma BL-6 in mice; format: in vivo, male BDF1 /SLC mice; details: 22th day
Procedure: (b) Inhibition of experimental metastasis (to the lung) of melanoma BL-6 in mice
BL-6 cancer cells, 5×10^4, were inoculated into the tail veins of male BDF1 /SLC mice (6 week age) of 6 mice each being grouped in one (13 mice for the control group). The test compounds were administered orally in a definite dose 24 hours after the inoculation. In order to see metastasis-inhibitory effect, on 22th day after the inoculation, the mice were anatomised to observe the metastasis to the lungs. The degree of metastasis was evaluated by the number of pulmonary nodules. [formula] T: Median number of pulmonary nodules of the administered group C: Median number of pulmonary nodules of the control group

MH 134 (liver cancer) = experiment: In vitro cytotoxicity against mouse tumor cells, MH 134; format: cell-based; details: 72 h, MH 134, 3 days, 37° C., trypan blue, read-out: IC50
Procedure: A suspension of cells in a culture medium was transferred into wells in a microplate in an amount of 1×10^5 cells/wall. Test sample diluted with a culture medium was added to the suspension in each well, and the mixture was incubated on the medium at 37° C. for 3 days in atmosphere of air containing 5% carbon dioxide. Thereafter, the incubated cells were recovered from the microplate and the number of live cells was counted by the dye exclusion test using a 0.5% solution of trypan blue and by using a hemocytomer.

[2] = test system: KB (nasal cavity & pharynx cancer); experiment: In vitro cytotoxicity against human tumor cells, KB; format: cell-based; details: 72 h, KB, 3 days, 37° C., crystalviolet, read-out: IC50
Procedure: (§1) A suspension of cells in a culture medium was transferred into wells in a microplate in an amount of 5×10^4 cells/well. Test sample diluted with a culture medium was added to the suspension in each well, and the mixture was incubated at 37° C. for 3 days in an atmosphere of air containing 5% carbon dioxide. After skimming, sticking cells were dyed which crystalviolet for 10 minutes. After washing with water, 1% sodium lauryl sulfate solution was added to each well, and the absrobancy (optical density) at […] was measured. "% inhibition" was calculated from the following equation. [formula]

Bowes (melanoma) = experiment: In vitro cytotoxicity against human tumor cells, Bowes; format: cell-based; details: 72 h, Bowes, 3 days, 37° C., crystalviolet, read-out: IC50
Procedure: as §1

[3] = 6.25 mg/kg i.p., 1, 2, 3, 4 and 6 Days
[4] = 12.5 mg/kg i.p., 1, 2, 3, 4 and 6 Days
[5] = 25 mg/kg i.p., 1, 2, 3, 4 and 6 Days
[6] = 50 mg/kg i.p., 1, 2, 3, 4 and 6 Days
[7] = 100 mg/kg i.p., 1, 2, 3, 4 and 6 Days
[8] = 200 mg/kg i.p., 1, 2, 3, 4 and 6 Days
[9] = 100 mg/kg oral, 1, 3, 5, 7, 9, 11, 13 and 15 days
[10] = 200 mg/kg oral, 1, 3, 5, 7, 9, 11, 13 and 15 days
[11] = 400 mg/kg oral, 1, 3, 5, 7, 9, 11, 13 and 15 days
[12] = 200 mg/kg oral, 1, 2, 3, 5, 6, 7, 8, 9 and 10 days
[13] = 400 mg/kg oral, 1, 2, 3, 5, 6, 7, 8, 9 and 10 days

`CCOC(=O)C(C)(C)CCCCOc1ccc(OCCCCCn2ccnc2)cc1` [Compound B] was tested, and the “Growth Inhibition Rate” value (Meth A solid tumor; Day 15, 100 mg/kg p.o.) was 27.5%, the “Size of Tumor” value (Meth A solid tumor; Day 15, 100 mg/kg p.o.) was 163.0 ± 41.9 mm^2 and the “Growth Inhibition Rate” value (Meth A solid tumor; Day 15, 200 mg/kg p.o.) was 46.4%. The “Size of Tumor” value (Meth A solid tumor; Day 15, 200 mg/kg p.o.) was 124.5 ± 60.2 mm^2, the “Growth Inhibition Rate” value (Meth A solid tumor; Day 15, 400 mg/kg p.o.) was 53.6% and the “Size of Tumor” value (Meth A solid tumor; Day 15, 400 mg/kg p.o.) was 104.4 ± 56.9 mm^2. For the same molecule, the “Growth Inhibition Rate” value (Meth A solid tumor; Day 21, 100 mg/kg p.o.) was 18.8%, the “Size of Tumor” value (Meth A solid tumor; Day 21, 100 mg/kg p.o.) was 387.9 ± 101.8 mm^2 and the “Growth Inhibition Rate” value (Meth A solid tumor; Day 21, 200 mg/kg p.o.) was 39.2%. The “Size of Tumor” value (Meth A solid tumor; Day 21, 200 mg/kg p.o.) was 290.8 ± 100.9 mm^2, the “Growth Inhibition Rate” value (Meth A solid tumor; Day 21, 400 mg/kg p.o.) was 41.6% and the “Size of Tumor” value (Meth A solid tumor; Day 21, 400 mg/kg p.o.) was 279.3 ± 152.1 mm^2. For the same molecule, the “Median Survival Day” value (MM-46 ascites tumor; [3]) was 7.0 days, the “Survivors (90 days)” value (MM-46 ascites tumor; [3]) was 0/10 and the “T/C (median survival)” value (MM-46 ascites tumor; [3]) was 93.3%. The “Median Survival Day” value (MM-46 ascites tumor; [4]) was 7.0 days, the “Survivors (90 days)” value (MM-46 ascites tumor; [4]) was 0/10 and the “T/C (median survival)” value (MM-46 ascites tumor; [4]) was 93.3%. The “Median Survival Day” value (MM-46 ascites tumor; [5]) was 8.5 days, the “Survivors (90 days)” value (MM-46 ascites tumor; [5]) was 0/10 and the “T/C (median survival)” value (MM-46 ascites tumor; [5]) was 113.3%. The “Median Survival Day” value (MM-46 ascites tumor; [6]) was 34.0 days, the “Survivors (90 days)” value (MM-46 ascites tumor; [6]) was 0/10 and the “T/C (median survival)” value (MM-46 ascites tumor; [6]) was 453.3%. The “Median Survival Day” value (MM-46 ascites tumor; [7]) was 49.0 days, the “Survivors (90 days)” value (MM-46 ascites tumor; [7]) was 1/10 and the “T/C (median survival)” value (MM-46 ascites tumor; [7]) was 653.3%. For the same molecule, the “Median Survival Day” value (MM-46 ascites tumor; [8]) was 18.5 days, the “Survivors (90 days)” value (MM-46 ascites tumor; [8]) was 0/10 and the “T/C (median survival)” value (MM-46 ascites tumor; [8]) was 246.7%. The “Growth inhibition of the metastasis tumor” value [1, 9] was 33.8%, the Metastasis-inhibition rate [1, 9] was 8.5% and the “Growth inhibition of the metastasis tumor” value [1, 10] was 79.4%. The Metastasis-inhibition rate [1, 10] was 41.2%, the “Growth inhibition of the metastasis tumor” value [1, 11] was 80.4% and the Metastasis-inhibition rate [1, 11] was 73.9%. The Pulmonary metastasis-inhibition rate (melanoma BL-6; [12]) was 50.0%, the “The number of pulmonary nodules, median” value (melanoma BL-6; [12]) was 10.5 and the “The number of pulmonary nodules, range” value (melanoma BL-6; [12]) was 1-20. The Pulmonary metastasis-inhibition rate (melanoma BL-6; [13]) was 69.0%, the “The number of pulmonary nodules, median” value (melanoma BL-6; [13]) was 6.5 and the “The number of pulmonary nodules, range” value (melanoma BL-6; [13]) was 1-14. The IC50 (MH 134 (liver cancer)) was 2.2 µg/mL (≈ 5.28 µM), the IC50 [2] was 1.15 µg/mL (≈ 2.76 µM) and the IC50 (Bowes (melanoma)) was 1 µg/mL (≈ 2.4 µM).
